Source: paper PMC12040169 (PLOS Biology, 2025)

Test: in vitro
Conditions: human, hela cells, % viability

Structure (SMILES) | viability at 28.5 h, 10 µM
COc1ccc(C(=O)/C=C(\Nc2cccc(C(F)(F)F)c2)C(=O)O)cc1 [CBK264387] | 107%
CC(C)c1ccc(S(=O)(=O)NC(C#N)c2ccccc2)cc1 (stereo not shown) [CBK044403] | 101%
Cc1ccc(C2(O)CC3CCC(C2)N3C(=O)C2CCC2)cc1 (stereo not shown) [CBK103860] | 99.2%
O=C1CCC(=O)N1CCOc1nccnc1OC1CCN(CCCn2c(=O)[nH]c3ccccc32)CC1 [CBK084350] | 90.2%
COc1ccc(-c2noc(COc3cccc(C(=O)O)c3)n2)c(OC)c1 [CBK298279] | 101%
CCOc1ccc(CCNC(=O)c2cnc(Nc3ccccc3OC)c3ccccc23)cc1OCC [CBK291185] | 94.5%
CCOC(=O)CCNC(=O)C1(c2ccccc2)CCCC1 [CBK149543] | 88.2%
CC(=O)c1ccc(NC(=O)N2Cc3nc[nH]c3C[C@H]2c2nc(-c3ccc(C)cc3)no2)cc1 [CBK288959] | 83.6%
CCCC/C=C/c1cncc(N(C)CCN(C)C)n1 [CBK065374] | 91.1%
O=C(NCCCn1ccnn1)c1cccc(S(=O)(=O)N2CCCCC2)c1 [CBK304660] | 104%
O/N=C/c1c[nH]c2ccccc12 [CBK168630] | 102%
Cc1c(C(N)=O)sc2ncn(CC(=O)NCCc3ccccc3)c(=O)c12 [CBK268514] | 90.4%
Cn1cc(-c2nccnc2OCc2ccccn2)cn1 [CBK107067] | 97.2%
CCCCCNC(=O)N1CCN(CCCC(c2ccc(F)cc2)c2ccc(F)cc2)CC1 [CBK024917C] | 103%
CC(=O)Nc1cccc(C(=O)OCC(=O)N2CCCCC2C)c1 (stereo not shown) [CBK305868] | 76.6%
S=C(Nc1ncn(Cc2ccc(Cl)c(Cl)c2)n1)Nc1ccc(Br)cc1Cl [CBK266940] | 92.7%
CN(C)CCN(C)C(=O)c1ccc(-c2ccccc2CO)nc1N(C)C [CBK076591] | 95%
CCN(CC)CCCNc1c([N+](=O)[O-])c(=O)n(C)c2ccccc12 [CBK264893] | 112%
COc1cccc(CCC(=O)n2ccn(CCCOc3ccccc3)c2=O)c1 [CBK106565] | 104%
Cc1cccc(C)c1N(CC(=O)O)S(C)(=O)=O [CBK262329] | 102%
Clc1nc2ccccc2nc1N1CCNCC1 [CBK003880] | 96%

Structure (SMILES) | viability at 28.5 h, 10 µM
CCn1cc(CN(Cc2ccccc2)CC2CCCO2)c(C)n1 (stereo not shown) [CBK283265] | 93.7%
O=C(Cc1c[nH]cn1)N1CCCC2(CCN(C(=O)c3cc(F)c(F)cc3F)C2)C1 (stereo not shown) [CBK137072] | 95.6%
CC(CCN1CCN(CCO)CC1)c1ccccc1 (stereo not shown) [CBK261876] | 102%
CCOC(=O)c1ccc(NC(=O)c2ccccc2-c2nc(-c3ccccc3Cl)no2)cc1 [CBK268919] | 111%
O=C(COc1cccc2ccccc12)N/N=C/c1ccco1 [CBK086853] | 103%
O=S(=O)(c1ccc(Oc2ccc(S(=O)(=O)N3CCCCCC3)cc2)cc1)N1CCCCCC1 [CBK261729] | 99%
CC(C)(C)c1ccnc(N[C@H]2CO[C@H]3[C@@H]2OC[C@@H]3NC(=O)c2cccs2)n1 [CBK289520] | 94.8%
Cc1c(C(=O)Nc2cccc(-c3nc4ccccc4s3)c2)sc2nc[nH]c(=O)c12 [CBK285825] | 80.5%
CC(=O)c1ccc(NC(=O)N[C@H]2CCN3C(=O)[C@@H](Cc4ccccc4)NC(=O)[C@H]23)cc1 [CBK289229] | 85.9%
COc1ccc(CNC(=O)C2CCCN(c3nc4c(-c5ccc(C)cc5)csc4c(=O)[nH]3)C2)cc1 (stereo not shown) [CBK215530] | 112%
Cc1ccc(C2=CCN(CC(=O)Nc3ccccn3)CC2)o1 [CBK283634] | 98.7%
Cc1nn(CC(=O)Nc2ccc3c(c2)nc(CN2CCCC2)n3C)c(=O)c2ccccc12 [CBK268465] | 97.5%
Cc1cc(S(=O)(=O)NCC(=O)OC(C)C)c(C)cc1Cl [CBK044196] | 101%
CCCN1CCCC(c2cccc(O)c2)C1 (stereo not shown) [CBK016405B] | 92.6%
CC(C)(C)c1ccc(-c2ccc3ccc(=O)[nH]c3n2)cc1 [CBK073716] | 96.5%
COc1cc2c(cc1NC(=O)CN(C)S(=O)(=O)c1ccc(Cl)cc1)oc1ccccc12 [CBK267404] | 93.6%
Cc1ccccc1C(=O)NC(NCC1CCCO1)C(Cl)(Cl)Cl (stereo not shown) [CBK262273] | 91.9%
N#Cc1cccc(CN2CCCC3(CCN(C(=O)c4cc(F)c(F)cc4F)C3)C2)c1 (stereo not shown) [CBK131993] | 100%
CC(=O)Nc1ccc(S(=O)(=O)N2CCN(c3ccc([N+](=O)[O-])c(NC4CC4)c3)CC2)cc1 [CBK264439] | 97.3%
O=C(NCCc1ccccc1)c1cc(-c2ccccc2Cl)[nH]n1 [CBK288113] | 105%
COc1ccc(C)cc1S(=O)(=O)N(C)CC(=O)Nc1cccc(C(C)=O)c1 [CBK268753] | 102%

Structure (SMILES) | viability at 28.5 h, 10 µM
O=C(NCc1ccncc1)c1ncoc1-c1ccc(F)cc1 [CBK282354] | 83.8%
COc1ccc(C(NC(=O)C2CCN(S(C)(=O)=O)CC2)c2ccccc2C)cn1 (stereo not shown) [CBK059738] | 104%
CN1CCN(C(=O)c2ccc(-c3ccccc3)nc2N(C)C)CC1 [CBK106115] | 84.4%
CSc1nnc2n3ncnc3c3c4c(sc3n12)CCCC4C (stereo not shown) [CBK288542] | 97.3%
O=C(NC1CCCC1)c1ccc2c(c1)OCO2 [CBK002177] | 81%
Fc1ccccc1CN1CCC(Oc2nccnc2OCc2cccnc2)CC1 [CBK083157T] | 91.8%
CCn1c(C)c(C)n2c3c(=O)n(CCN4CCOCC4)c(=O)n(C)c3nc12 [CBK269786] | 90.6%
Cn1c(NCc2ccccn2)nc2ccccc21 [CBK268544] | 110%
CCc1n[nH]c(C(=O)N2CCc3ncc(Cl)cc3C2)c1C [CBK284856] | 92.8%
Cn1ccc(C(=O)NC(Cc2ccsc2)c2ccccn2)cc1=O (stereo not shown) [CBK285273] | 97.5%
Cc1ccc(C(=O)C2=C(O)C(=O)N(CCN(C)C)C2c2ccccn2)o1 (stereo not shown) [CBK266536] | 119%
NCCNCCNCCN [CBK023985C] | 93.2%
C=C(C)Cn1c(-c2ccc(N)cc2)nc2ccccc21 [CBK287581] | 89.2%
N#Cc1ccccc1NC(=O)CSc1cnn[nH]1 [CBK269795] | 89.3%
COc1cc(CN2CCC3(CC2)CN(C(=O)CO)c2ccccc23)cc(OC)c1OC [CBK131494] | 94%
COCC(=O)N1CCN2C(=O)c3cc(-c4ccccc4F)ccc3NC(=O)[C@H]2C1 [CBK289587] | 82.4%
O=C1c2ccccc2C(=O)N1c1ccc(S(=O)(=O)NCCCO)c2ccccc12 [CBK262509] | 105%
O=C(NCC(CO)Cc1ccccn1)c1ccc2cc[nH]c2c1 (stereo not shown) [CBK305222] | 81.6%
O=C(CSc1ncnc2c1oc1ccccc12)NC1CCCCC1 [CBK287396] | 95.4%
CCOC(=O)C(NC(=O)c1c(C)nn(C)c1C)c1cccc(C)c1C (stereo not shown) [CBK304253] | 98.9%

Same assay, conditions: human, hela cells, % viability, bulk resorufin, single well

Structure (SMILES) | viability at 28.5 h, 10 µM
O=C1NC(=O)N(c2ccc(Cl)cc2)C(=O)/C1=C\NCCCO [CBK261648] | 90.2%
O=C1NC(=O)N(Cc2ccco2)C(=O)/C1=C\c1cn(Cc2ccccc2)c2ccccc12 [CBK263939] | 88.5%
